Measurements from PubChem BioAssay (NCI).
Several values for one entry are separate records, joined by “and”; a condition that tells them apart may be missing. Equal values may be shown once.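 Values below derive from 48-hour exposures of cells grown in 96-well plates, with endpoints linearly interpolated between the two concentrations bracketing the appropriate inhibition level. GI50 is the concentration that inhibits growth by half. TGI denotes the concentration required for complete inhibition of growth.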

How the values were obtained:
Assay in all cases: NCI-60 cell line screen, 48 h
[1] = tested on: SK-MEL-28 melanoma
[2] = tested on: UACC-62 melanoma
[3] = tested on: COLO 205 colon
[4] = tested on: SN12C renal
[5] = tested on: EKVX NSCLC
[6] = tested on: CCRF-CEM leukemia
[7] = tested on: OVCAR-5 ovarian
[8] = tested on: SF-268 CNS
[9] = tested on: MCF7 breast
[10] = tested on: MDA-MB-435

| SMILES | TGI [1] | TGI [2] [µM] | TGI [3] | TGI [4] | TGI [5] | TGI [6] [µM] | TGI [7] | TGI [8] | TGI [9] | TGI [10] | GI50 [1] | GI50 [9] | GI50 [2] [µM] | GI50 [4] | GI50 [5] | GI50 [6] | GI50 [7] | GI50 [8] | GI50 [10] | GI50 [3] |
| --- | --- | --- | --- | --- | --- | --- | --- | --- | --- | --- | --- | --- | --- | --- | --- | --- | --- | --- | --- | --- |
| O=c1cc(-c2cccs2)[nH]c2cc3c(cc12)OCO3 | > 100 µM | > 25 | > 100 µM | > 100 µM | > 100 µM | > 100 | > 100 µM | > 100 µM |  |  |  |  |  |  |  |  |  |  |  |  |
| O=C(/C=C/c1ccccc1)Oc1cccc2cccnc12 | > 86.3 µM | 27.1 | 21.1 µM | > 58.6 µM | > 68.2 µM | > 29.3 | 80.6 µM | 13.7 µM |  |  |  |  |  |  |  |  |  |  |  |  |
| O=C(O)CCNS(=O)(=O)c1ccc(NC(=O)c2ccccc2)cc1 | > 100 µM | > 100 | > 100 µM | > 100 µM | > 100 µM | > 100 | > 100 µM | > 100 µM |  |  |  |  |  |  |  |  |  |  |  |  |
| C1CSCCCSCCCSCCCSCCCSCCCSCCCSCCCSC1 | > 100 µM |  | > 100 µM | > 100 µM | > 100 µM | > 100 | > 100 µM | > 100 µM | > 100 µM | > 100 µM |  |  |  |  |  |  |  |  |  |  |
| CCc1c(C#N)c(=O)[nH]c(=O)n1CCN1CCN(C(=O)NCCCCCCNC(=O)N2CCN(CCn3c(CC)c(C#N)c(=O)[nH]c3=O)CC2)CC1 |  | > 100 | > 100 µM | > 100 µM | > 100 µM | > 100 |  |  |  |  |  |  |  |  |  |  |  |  |  |  |
| CCSC1=NC2C(N(CC)C(=O)N2CC)N1/N=C/C=C/c1ccccc1[N+](=O)[O-] (stereo not given) | > 100 µM | > 100 |  | > 100 µM | > 100 µM | > 100 | > 100 µM | > 100 µM | > 100 µM |  | 5.83 µM | 0.0415 µM | 0.0604 | 0.401 µM | 0.314 µM | 0.331 µM | 0.426 µM | 0.486 µM |  |  |
| O=C(NCCCOC(=O)CCCCCCCCC(=O)OCCCNC(=O)NC(=O)c1c[nH]c(=O)[nH]c1=O)NC(=O)c1c[nH]c(=O)[nH]c1=O | > 100 µM | > 100 | > 100 µM | > 100 µM | > 100 µM | > 100 | > 100 µM | > 100 µM |  |  |  |  |  |  |  |  |  |  |  |  |
| CCOc1ccccc1CCN=C1NC(=O)/C(=C/c2ccc3ncccc3c2)S1 | > 24.1 µM | 10.3 | 3.07 µM | > 25 µM |  | 7.12 | 15.8 µM | > 25 µM | > 25 µM | 1.71 µM | 5.22 µM | 0.792 µM | 1.48 | 1.61 µM |  | 1.05 µM | 3.09 µM | 1.35 µM | 0.491 µM | 0.735 µM |
| Clc1ccc(-c2cn3ccnc3c(-c3ccc(Cl)cc3)n2)cc1 | > 100 µM | > 100 | > 100 µM | 95.1 µM | > 100 µM |  | > 100 µM | > 100 µM | > 100 µM | 8.07 µM | > 100 µM | 11.4 µM | 36.2 | 16.7 µM | 31.9 µM |  | 32.9 µM | 15.4 µM | 2.79 µM | 27.6 µM |
| Nc1ncnc2c1ncn2C1OC(CSCC(F)(F)F)C(O)C1O (stereo not given) | > 100 µM | > 100 | > 100 µM | > 100 µM | > 100 µM |  | > 100 µM | > 100 µM |  |  |  |  |  |  |  |  |  |  |  |  |
| CN1N=CSC12C(=O)N(c1ccccc1)C(=O)N2c1ccccc1 (stereo not given) | > 100 µM | > 100 | > 100 µM | > 100 µM | > 100 µM | > 100 | > 100 µM | > 100 µM |  |  |  |  |  |  |  |  |  |  |  |  |
| Cc1nc(C(N)=O)c(N)n1CCN1CCN(C(=O)CCCCCCCCCCNC2N=CNc3nc[nH]c32)CC1 (stereo not given) | 79.1 µM | > 100 | > 100 µM | > 100 µM |  | 81.9 | > 100 µM | > 100 µM |  |  |  |  |  |  |  |  |  |  |  |  |
| O=C(N/N=C/c1ccccc1O)N/N=C/c1ccccc1O | > 100 µM | > 100 | > 100 µM | > 100 µM | > 100 µM | > 100 | > 100 µM | > 100 µM |  |  |  |  |  |  |  |  |  |  |  |  |
| N#CC(N)=Nc1ccccc1 | > 100 µM | > 100 | > 100 µM | > 100 µM | > 100 µM | > 100 | > 100 µM | > 100 µM |  |  |  |  |  |  |  |  |  |  |  |  |
| COC(=O)C1=CO[C@@H](OC2CC(CO)C(O)C(O)C2O)[C@@H]2[C@@H](C)[C@@H](OC(=O)/C=C/c3ccccc3)[C@@H](O)[C@H]12 (stereo not given in full) (tested in a mixture with another compound) | > 100 µM | > 100 | > 100 µM | > 100 µM | > 100 µM | > 100 | > 100 µM | > 100 µM |  |  |  |  |  |  |  |  |  |  |  |  |
| O=C1CC(CC(=O)C2CCCCC2=O)C(=O)N1 (stereo not given) | > 100 µM | > 100 | > 100 µM | > 100 µM | > 100 µM | > 100 | > 100 µM | > 100 µM |  |  |  |  |  |  |  |  |  |  |  |  |
| Oc1cccc(Nc2nc3ccccc3c3occc23)c1 | 12.5 µM | 23.1 | 26.7 µM | 25.9 µM | 28.5 µM |  | 25.3 µM | 17.5 µM | 21 µM | 14.8 µM | 0.364 µM | 7.4 µM | 11.1 | 13.2 µM | 14.6 µM |  | 12.7 µM | 4.39 µM | 3.04 µM | 13.8 µM |
| CC(=O)c1c(O)c(C)c(O)c(Cc2c(O)c3c(c(C(=O)/C=C/c4ccccc4)c2O)OC(C)(C)C=C3)c1O | 14.9 µM | 10 | 3.95 µM | 9.09 µM | 12.9 µM | > 100 | 22.4 µM | 85.7 µM | 19.9 µM |  |  |  |  |  |  |  |  |  |  |  |
| COC(=O)/C(=N\NC(C)(C)C)C(C(=O)OC)C(=O)C(=O)Nc1cc(Cl)ccc1Cl (stereo not given) | > 100 µM | > 100 | > 100 µM | > 100 µM | > 100 µM | > 100 | > 100 µM | > 100 µM |  |  |  |  |  |  |  |  |  |  |  |  |
| Cn1ncc(-c2ccc3c(=O)[nH]nc(CN)c3c2)c1-c1c(F)c(Cl)cc(OC2CC2)c1C#N | 27.8 µM and 27.2 µM |  | 26.9 µM and 25.1 µM | 28.7 µM and 25.3 µM | 30.5 µM and 29.6 µM | > 100 | 77 µM and 44.7 µM | 28.8 µM and 26.7 µM | 23.6 µM and 23.3 µM | 24.7 µM and 22.9 µM | 14.3 µM and 13.7 µM | 10.8 µM and 10.2 µM |  | 13.5 µM and 11.8 µM | 14.9 µM and 14 µM | 22.3 µM and 33.4 µM | 20.4 µM and 16.8 µM | 14.1 µM and 12.8 µM | 11.9 µM and 10.7 µM | 11.8 µM and 10.9 µM |
